± gives the expanded uncertainty stated by the source.
Details: Liquid, Vibrating tube method

CCCCCCCCCCCC(=O)OC [methyl dodecanoate]
mass density [kg/m3]
Details | 283.15 K | 293.15 K | 303.15 K | 313.15 K | 323.15 K | 333.15 K | 343.15 K | 353.15 K | 363.15 K
100 kPa | 876.58 ± 0.9 | 869.3 ± 0.9 | 860.98 ± 0.89 | 853.31 ± 0.88 | 845.42 ± 0.87 | 837.89 ± 0.87 | 829.64 ± 0.86 | 821.96 ± 0.85 | 813.95 ± 0.84
1000 kPa | 877.29 ± 0.9 | 869.79 ± 0.9 | 861.67 ± 0.89 | 853.78 ± 0.88 | 846.17 ± 0.87 | 838.44 ± 0.87 | 830.6 ± 0.86 | 822.7 ± 0.85 | 814.97 ± 0.85
3000 kPa | 879.12 ± 0.91 | 871.19 ± 0.9 | 863.19 ± 0.89 | 855.32 ± 0.89 | 847.65 ± 0.88 | 840.13 ± 0.87 | 832.28 ± 0.86 | 824.65 ± 0.86 | 816.88 ± 0.85
5000 kPa | 880.29 ± 0.91 | 872.09 ± 0.9 | 864.57 ± 0.9 | 856.78 ± 0.89 | 849.19 ± 0.88 | 841.69 ± 0.88 | 834.04 ± 0.87 | 826.36 ± 0.86 | 818.64 ± 0.86
10000 kPa | 883.41 ± 0.92 | 875.46 ± 0.91 | 867.78 ± 0.91 | 860.3 ± 0.9 | 852.91 ± 0.89 | 845.49 ± 0.89 | 837.93 ± 0.88 | 830.59 ± 0.88 | 822.93 ± 0.87
15000 kPa | 886.29 ± 0.93 | 878.42 ± 0.92 | 871.1 ± 0.92 | 863.63 ± 0.91 | 856.38 ± 0.9 | 849.14 ± 0.9 | 841.71 ± 0.89 | 834.55 ± 0.89 | 827.44 ± 0.88
20000 kPa | 889.1 ± 0.94 | 881.47 ± 0.93 | 874.06 ± 0.92 | 866.74 ± 0.92 | 859.88 ± 0.91 | 852.7 ± 0.91 | 845.7 ± 0.91 | 838.32 ± 0.9 | 831.22 ± 0.9
25000 kPa | 891.75 ± 0.94 | 884.32 ± 0.94 | 876.92 ± 0.93 | 870.04 ± 0.93 | 863.01 ± 0.93 | 856.12 ± 0.92 | 848.98 ± 0.92 | 842.04 ± 0.91 | 834.95 ± 0.91
30000 kPa | 894.31 ± 0.95 | 887.1 ± 0.95 | 879.85 ± 0.94 | 872.94 ± 0.94 | 866.2 ± 0.94 | 859.27 ± 0.93 | 852.48 ± 0.93 | 845.62 ± 0.93 | 838.64 ± 0.92
35000 kPa | 896.95 ± 0.96 | 889.69 ± 0.96 | 882.66 ± 0.95 | 875.68 ± 0.95 | 869.19 ± 0.95 | 862.4 ± 0.94 | 855.72 ± 0.94 | 849.06 ± 0.94 | 842.26 ± 0.94
40000 kPa | 899.33 ± 0.97 | 892.27 ± 0.96 | 885.34 ± 0.96 | 878.33 ± 0.96 | 872.15 ± 0.96 | 865.66 ± 0.95 | 858.94 ± 0.95 | 853.14 ± 0.95 | 845.87 ± 0.95
50000 kPa | 904.05 ± 0.98 | 897.52 ± 0.98 | 890.6 ± 0.98 | 883.95 ± 0.98 | 877.67 ± 0.98 | 871.36 ± 0.98 | 864.79 ± 0.98 | 858.49 ± 0.98 | 852.24 ± 0.98
60000 kPa | 909.85 ± 0.99 | 901.95 ± 0.99 | 895.49 ± 0.99 | 888.91 ± 0.99 | 883.06 ± 1 | 876.77 ± 1 | 870.31 ± 1 | 864.35 ± 1 | 858.43 ± 1

CCCCCCCCCCCC(=O)OCC [ethyl dodecanoate]
mass density [kg/m3]
Details | 283.15 K | 293.15 K | 303.15 K | 313.15 K | 323.15 K | 333.15 K | 343.15 K | 353.15 K | 363.15 K
100 kPa | 869.69 ± 0.9 | 862.5 ± 0.89 | 854.28 ± 0.88 | 846.91 ± 0.87 | 838.9 ± 0.87 | 831.05 ± 0.86 | 823.11 ± 0.85 | 815.47 ± 0.84 | 807.52 ± 0.84
1000 kPa | 870.36 ± 0.9 | 863 ± 0.89 | 855.02 ± 0.88 | 847.32 ± 0.88 | 839.64 ± 0.87 | 831.72 ± 0.86 | 824.13 ± 0.85 | 816.33 ± 0.85 | 808.53 ± 0.84
3000 kPa | 871.92 ± 0.9 | 864.24 ± 0.89 | 856.39 ± 0.89 | 848.68 ± 0.88 | 841.1 ± 0.87 | 833.53 ± 0.87 | 825.84 ± 0.86 | 818.26 ± 0.85 | 810.45 ± 0.84
5000 kPa | 872.91 ± 0.9 | 865.2 ± 0.9 | 857.69 ± 0.89 | 850.07 ± 0.88 | 842.59 ± 0.88 | 835.15 ± 0.87 | 827.55 ± 0.86 | 819.99 ± 0.86 | 812.32 ± 0.85
10000 kPa | 876.08 ± 0.91 | 868.58 ± 0.91 | 860.98 ± 0.9 | 853.51 ± 0.89 | 846.29 ± 0.89 | 838.84 ± 0.88 | 831.53 ± 0.88 | 824.24 ± 0.87 | 816.46 ± 0.86
15000 kPa | 878.96 ± 0.92 | 871.64 ± 0.92 | 864.33 ± 0.91 | 856.86 ± 0.9 | 849.77 ± 0.9 | 842.47 ± 0.89 | 835.33 ± 0.89 | 828.35 ± 0.88 | 821.01 ± 0.88
20000 kPa | 881.89 ± 0.93 | 874.58 ± 0.92 | 867.23 ± 0.92 | 860.1 ± 0.91 | 853.3 ± 0.91 | 846.07 ± 0.91 | 839.18 ± 0.9 | 832.01 ± 0.9 | 824.82 ± 0.89
25000 kPa | 884.58 ± 0.94 | 877.55 ± 0.93 | 870.25 ± 0.93 | 863.29 ± 0.93 | 856.35 ± 0.92 | 849.47 ± 0.92 | 842.57 ± 0.91 | 835.81 ± 0.91 | 828.56 ± 0.91
30000 kPa | 887.29 ± 0.95 | 880.26 ± 0.94 | 873.21 ± 0.94 | 866.24 ± 0.94 | 859.5 ± 0.93 | 852.73 ± 0.93 | 846.08 ± 0.93 | 839.36 ± 0.92 | 832.36 ± 0.92
35000 kPa | 890.05 ± 0.96 | 882.89 ± 0.95 | 876.08 ± 0.95 | 869.1 ± 0.95 | 862.45 ± 0.94 | 855.75 ± 0.94 | 849.44 ± 0.94 | 842.72 ± 0.94 | 835.98 ± 0.93
40000 kPa | 892.47 ± 0.96 | 885.52 ± 0.96 | 878.71 ± 0.96 | 871.83 ± 0.96 | 865.48 ± 0.95 | 859.06 ± 0.95 | 852.46 ± 0.95 | 846.01 ± 0.95 | 839.55 ± 0.95
50000 kPa | 897.22 ± 0.98 | 890.85 ± 0.98 | 883.88 ± 0.98 | 877.43 ± 0.98 | 871.16 ± 0.98 | 864.9 ± 0.98 | 858.61 ± 0.98 | 852.29 ± 0.98 | 845.99 ± 0.98
60000 kPa | 901.93 ± 0.99 | 895.29 ± 0.99 | 888.85 ± 0.99 | 882.35 ± 1 | 876.11 ± 1 | 870.44 ± 1 | 864.08 ± 1 | 858.27 ± 1 | 852.14 ± 1

From the NIST ThermoML archive (doi:10.1016/j.jct.2016.08.027)
